Data taken from PMC10348545 (PLOS Pathogens, 2023).

Target: T1, CbMip (Coxiella burnetii, UniProt P51752)
T1 construct: gene mip
Assay: biochemical

T1 sequence (P51752 22-230 limits assumed): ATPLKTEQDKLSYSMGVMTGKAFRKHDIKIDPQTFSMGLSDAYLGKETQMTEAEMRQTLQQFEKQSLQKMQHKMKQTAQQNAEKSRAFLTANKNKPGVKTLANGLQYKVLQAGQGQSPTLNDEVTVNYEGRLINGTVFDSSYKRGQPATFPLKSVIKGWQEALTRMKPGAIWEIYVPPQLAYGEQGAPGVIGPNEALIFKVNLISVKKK

## O=C(O[C@@H](Cc1ccccc1)C(=O)NCc1cccnc1)C1CCCCN1S(=O)(=O)Cc1ccccc1 (some centres unmarked) [ANCH37]
  Ki: 4.6 ± 0.9 µM

## O=C(NCCOC(=O)[C@@H]1CCCCN1S(=O)(=O)Cc1ccccc1)c1cccnc1 [SF235]
  Ki: 18 ± 4 µM
